# Like-named read-outs stand apart in the source and are kept apart here.
# Columns and labels:
# [1] = system: cap-dependent translation in Flp-In-293 reporter cells; assay: Cellular cap-dependent translation inhibition assay (dual luciferase assay, DLA; Fluc/Rluc ratio, 24 hours); assay type: cell-based
# human eIF4E protein = biological target: T1, human eIF4E protein (Homo sapiens, UniProt P06730); assay: Biochemical competitive binding assay (TR-FRET competition, EDA-m7GDP-ATTO-647N probe); conditions: read-out: hEIF4E TR-FRET IC50
# T1 construct: purchased Novus NBP-45314
# T1 sequence (P06730 whole entry): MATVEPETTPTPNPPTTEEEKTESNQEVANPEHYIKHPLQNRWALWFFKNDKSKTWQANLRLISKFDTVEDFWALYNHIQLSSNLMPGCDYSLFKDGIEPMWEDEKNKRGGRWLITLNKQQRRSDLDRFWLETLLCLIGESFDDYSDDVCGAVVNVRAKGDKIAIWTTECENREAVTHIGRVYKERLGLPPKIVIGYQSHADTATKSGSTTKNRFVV
# Procedure, shortened: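 IC50 values come from 4-parameter fits of the normalized 665/620 nm TR-FRET ratio. Compound was first incubated 15 min with 4 nM recombinant His-eIF4E bound to 2.5 nM Eu-anti-His antibody, then 15 min with 5 nM m7GDP-ATTO-647N tracer, in pH 7.5 HEPES buffer with 100 mM KCl, Tween-20 and BSA.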
# [2] = system: COLO 205 colorectal tumor cells; assay: Tumor cell viability inhibition assay (CellTiter-Glo 2.0, 72 hours); assay type: cell-based; conditions: COLO 205 cell viability
# Procedure, shortened: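 IC50 derived by 4-parameter fitting after normalizing luminescence to DMSO and max-inhibition wells. Compounds tested as 11 concentrations in 4-fold steps on COLO 205 cells seeded at 1500 per well in RPMI-1640/10% FBS; ATP content measured with CellTiter-Glo 2.0 after 72 h.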
# [3] = Homo sapiens, Flp-In-293, 24 h, dual luciferase assay, Flp-In-293 reporter cells, 24 hours, Fluc/Rluc ratio, read-out: DLA 205 IC50
# [4] = dual luciferase assay, Flp-In-293 reporter cells, 24 hours, Fluc/Rluc ratio, read-out: DLA 205 IC50
# [5] = Homo sapiens, Flp-In-293, 24 h, read-out: DLA 205 IC50, dual luciferase assay, Flp-In-293 reporter cells, 24 hours, Fluc/Rluc ratio
SMILES,IC50 (human eIF4E protein),"IC50 ([2]; Homo sapiens, COLO 205, 72 h)",IC50 [2],"IC50 [1, 3]","IC50 [1, 4]","IC50 [1, 5]",IC50 ([2]; Homo sapiens)
Cc1cc(-c2cc(Cl)ccc2OCCn2c(C)nc3c(c2=O)CC(N(C)CC(F)(F)F)CC3)c2scc(C(=O)O)c2n1 (stereo not drawn) [Compound 54],< 100 nM,5000 to 20000 nM,–,1000 to 5000 nM,–,–,–
Cc1cc(-c2cc(Cl)ccc2OCCn2c(C)nc3c(c2=O)CC(N(C)C(=O)C2CN(CC(F)(F)F)C2)CC3)c2scc(C(=O)O)c2n1 (stereo not drawn) [Compound 72],< 100 nM,> 20000 nM,–,> 5000 nM,–,–,–
"Cc1cc(-c2cc(Cl)ccc2OCCn2c(C)nc3c(c2=O)CC(N(C)CC2(C)COC2)CC3)c2scc(C(=O)O)c2n1 (single isomer, unassigned) [Compound 344]",< 100 nM,< 5000 nM,–,< 1000 nM,–,–,–
"Cc1cc(-c2cc(Cl)ccc2OCCn2c(C)nc3c(c2=O)CC(N(C)C2CC2)CC3)c2sccc2n1 (single isomer, unassigned) [Compound 307]",100 to 500 nM,–,5000 to 20000 nM,–,1000 to 5000 nM,–,–
Cc1cc(-c2cc(Cl)ccc2OCCn2c(C)nc3c(c2=O)CC(N(C)C24CC(C)(C2)C4(F)F)CC3)c2scc(C(=O)O)c2n1 (stereo not drawn) [Compound 318],< 100 nM,5000 to 20000 nM,–,1000 to 5000 nM,–,–,–
"Cc1nc2c(c(=O)n1CC#Cc1ccc(Cl)cc1-c1ccnc3c(C(=O)NS(C)(=O)=O)csc13)CC(N(C)C1CC(F)(F)C1)CC2 (single isomer, unassigned) [Compound 333]",< 100 nM,< 5000 nM,–,< 1000 nM,–,–,–
Cc1nc2c(c(=O)n1CC#Cc1ccc(Cl)cc1-c1ccnc3c(C(=O)NS(C)(=O)=O)csc13)CC(N(C)C1CC1)CC2 (stereo not drawn) [Compound 271],< 100 nM,< 5000 nM,–,< 1000 nM,–,–,–
COC(=O)c1csc2c(-c3cc(Cl)ccc3OCCn3c(C)nc4c(c3=O)CC(N(CC(F)(F)F)C3CC3)CC4)cc(C)nc12 (stereo not drawn) [Compound 353],500 to 5000 nM,> 20000 nM,–,> 5000 nM,–,–,–
"Cc1nc2c(c(=O)n1CCOc1ccc(Cl)cc1-c1cccc(C(=O)O)c1)CC(N(C)C)CC2 (single isomer, unassigned) [Compound 25]",100 to 500 nM,–,> 20000 nM,–,1000 to 5000 nM,–,–
"Cc1cc(-c2cc(Cl)ccc2OCCn2c(C)nc3c(c2=O)CC(N2CCCCC2)CC3)c2ccc(C(=O)O)n2n1 (stereo not drawn) [Compound 45, 4-[5-chloranyl-2-[2-[2-methyl-4-oxidanylidene-6-(1-piperidyl)-5,6,7,8-tetrahydroquinazolin-3-yl]ethoxy]phenyl]-2-methyl-pyrrolo[1,2-b]pyridazine-7-carboxylic acid]",< 100 nM,< 5000 nM,–,< 1000 nM,–,–,–
Cc1nc2c(c(=O)n1CC#Cc1ccc(Cl)cc1-c1ccnc3c(C(=O)O)csc13)CC(N1CC(F)C1)CC2 (stereo not drawn) [Compound 355],< 100 nM,5000 to 20000 nM,–,< 1000 nM,–,–,–
CC(=O)N(C)C1CCc2nc(C)n(CCOc3ccc(Cl)cc3-c3cccc(C(=O)O)c3)c(=O)c2C1 (stereo not drawn) [Compound 15],500 to 5000 nM,> 20000 nM,–,> 5000 nM,–,–,–
Cc1cc(-c2cc(Cl)ccc2OCCn2c(C)nc3c(c2=O)CC(N2CCC2)CC3)c2scc(C(=O)O)c2n1 (stereo not drawn) [Compound 8],< 100 nM,–,–,–,–,< 1000 nM,5000 to 20000 nM
Cc1cc(-c2cc(Cl)ccc2OCCn2c(C)nc3c(c2=O)CC(N2CCOCC2)CC3)c2scc(C(=O)O)c2n1 (stereo not drawn) [Compound 9],< 100 nM,–,–,–,–,< 1000 nM,< 5000 nM
"Cc1cc(-c2cc(Cl)ccc2OCCn2c(C)nc3c(c2=O)CC(N(C)Cc2cc[nH]c(=O)c2)CC3)c2scc(C(=O)O)c2n1 (single isomer, unassigned) [Compound 246]",< 100 nM,> 20000 nM,–,> 5000 nM,–,–,–
"Cc1nc2c(c(=O)n1CC#Cc1ccc(Cl)cc1-c1ccnc3c(C(=O)O)csc13)CC(N1CCCCC1)CC2 (single isomer, unassigned) [Compound 299]",< 100 nM,–,5000 to 20000 nM,–,1000 to 5000 nM,–,–

# Now from value to compound, other results behind:
IC50 (human eIF4E protein),"IC50 ([2]; Homo sapiens, COLO 205, 72 h)",IC50 [2],SMILES,"IC50 [1, 3]","IC50 [1, 4]","IC50 [1, 5]",IC50 ([2]; Homo sapiens)
< 100 nM,< 5000 nM,–,"Cc1cc(-c2cc(Cl)ccc2OCCn2c(C)nc3c(c2=O)CC(N2CCC(F)(F)CC2)CC3)c2scc(C(=O)NS(C)(=O)=O)c2n1 (single isomer, unassigned) [Compound 251]",< 1000 nM,–,–,–
< 100 nM,–,5000 to 20000 nM,"Cc1cc(-c2cc(Cl)ccc2OCCn2c(C)nc3c(c2=O)CC(N(C)C2CC2)CC3)c2scc(C(=O)NS(=O)(=O)c3ccncc3)c2n1 (single isomer, unassigned) [Compound 285]",–,1000 to 5000 nM,–,–
< 100 nM,< 5000 nM,–,"Cc1cc(-c2cc(Cl)ccc2OCCn2c(C)nc3c(c2=O)C[C@H](N2CC[C@H](F)C2)CC3)c2scc(C(=O)O)c2n1 (single isomer, unassigned) [Compound 311]",< 1000 nM,–,–,–
< 100 nM,< 5000 nM,–,Cc1cc(-c2cc(Cl)ccc2OCCn2c(C)nc3c(c2=O)CC(N2CC4(COC4)C2)CC3)c2scc(C(=O)O)c2n1 (stereo not drawn) [Compound 20],< 1000 nM,–,–,–
< 100 nM,< 5000 nM,–,Cc1cc(-c2cc(Cl)ccc2OCCn2c(C)nc3c(c2=O)CC(N2CCCC(F)(F)C2)CC3)c2scc(C(=O)NS(C)(=O)=O)c2n1 (stereo not drawn) [Compound 81],< 1000 nM,–,–,–
< 100 nM,> 20000 nM,–,Cc1cc(-c2cc(Cl)ccc2OCCn2c(C)nc3c(c2=O)CC(N2CC(C)(N(C)C)C2)CC3)c2scc(C(=O)O)c2n1 (stereo not drawn) [Compound 23],> 5000 nM,–,–,–
< 100 nM,> 20000 nM,–,Cc1cc(-c2cc(Cl)ccc2OCCn2c(C)nc3c(c2=O)CC(N2CC4CN(C)CC4C2)CC3)c2scc(C(=O)O)c2n1 (stereo not drawn) [Compound 27],> 5000 nM,–,–,–
< 100 nM,< 5000 nM,–,"Cc1cc(-c2cc(Cl)ccc2OCCn2c(C)nc3c(c2=O)CC(N(C)C2CC2)CC3)c2scc(C(=O)NS(C)(=O)=O)c2n1 (single isomer, unassigned) [Compound 302]",< 1000 nM,–,–,–
< 100 nM,> 20000 nM,–,Cc1cc(-c2cc(Cl)ccc2OCCn2c(C)nc3c(c2=O)CC(N2CC4(CCN(C)C4)C2)CC3)c2scc(C(=O)O)c2n1 (stereo not drawn) [Compound 21],> 5000 nM,–,–,–
< 100 nM,< 5000 nM,–,"Cc1cc(-c2cc(Cl)ccc2OCCn2c(C)nc3c(c2=O)CC(N(C)CC2CC(F)(F)C2)CC3)c2scc(C(=O)NS(C)(=O)=O)c2n1 (single isomer, unassigned) [Compound 256]",< 1000 nM,–,–,–
< 100 nM,> 20000 nM,–,Cc1cc(-c2cc(Cl)ccc2OCCn2c(C)nc3c(c2=O)CC(N2CC4(CCN(C)CC4)C2)CC3)c2scc(C(=O)O)c2n1 (stereo not drawn) [Compound 22],1000 to 5000 nM,–,–,–
< 100 nM,< 5000 nM,–,Cc1cc(-c2cc(Cl)ccc2OCCn2c(C)nc3c(c2=O)CC(N2CC(C(F)(F)F)C2)CC3)c2scc(C(=O)O)c2n1 (stereo not drawn) [Compound 90],< 1000 nM,–,–,–
< 100 nM,< 5000 nM,–,"Cc1cc(-c2cc(Cl)ccc2OCCn2c(C)nc3c(c2=O)C[C@@H](N2CC[C@H](F)C2)CC3)c2scc(C(=O)NS(C)(=O)=O)c2n1 (single isomer, unassigned) [Compound 347]",< 1000 nM,–,–,–
< 100 nM,< 5000 nM,–,Cc1cc(-c2cc(Cl)ccc2OCCn2c(C)nc3c(c2=O)CC(N2CCCC(F)(F)C2)CC3)c2scc(C(=O)O)c2n1 (stereo not drawn) [Compound 50],< 1000 nM,–,–,–
< 100 nM,< 5000 nM,–,"Cc1cc(-c2cc(Cl)ccc2OCCn2c(C)nc3c(c2=O)CC(N2CC(F)C2)CC3)c2scc(C(=O)NS(C)(=O)=O)c2n1 (single isomer, unassigned) [Compound 342]",< 1000 nM,–,–,–
< 100 nM,< 5000 nM,–,"Cc1cc(-c2cc(Cl)ccc2OCCn2c(C)nc3c(c2=O)CC(N2CCCCC2)CC3)c2ccc(C(=O)NS(C)(=O)=O)n2n1 (stereo not drawn) [Compound 62, 4-[5-chloranyl-2-[2-[2-methyl-4-oxidanylidene-6-(1-piperidyl)-5,6,7,8-tetrahydroquinazolin-3-yl]ethoxy]phenyl]-2-methyl-N-methylsulfonyl-pyrrolo[1,2-b]pyridazine-7-carboxamide]",< 1000 nM,–,–,–
< 100 nM,–,< 5000 nM,"Cc1cc(-c2cc(Cl)ccc2OCCn2c(C)nc3c(c2=O)CC(N(C)C2CC2)CC3)c2scc(C(=O)O)c2n1 (single isomer, unassigned) [Compound 336]",–,< 1000 nM,–,–
< 100 nM,< 5000 nM,–,"Cc1cc(-c2cc(Cl)ccc2OCCn2c(C)nc3c(c2=O)C[C@@H](N2CC[C@H](F)C2)CC3)c2scc(C(=O)O)c2n1 (single isomer, unassigned) [Compound 310]",< 1000 nM,–,–,–
100 to 500 nM,> 20000 nM,–,Cc1cc(-c2cc(Cl)ccc2OCCn2c(C)nc3c(c2=O)CC(OC2CCN(C)CC2)CC3)c2scc(C(=O)O)c2n1 (stereo not drawn) [Compound 92],> 5000 nM,–,–,–
< 100 nM,> 20000 nM,–,"Cc1cc(-c2cc(Cl)ccc2OCCn2c(C)nc3c(c2=O)CC(N(C)C2CNC2)CC3)c2scc(C(=O)O)c2n1 (stereo not drawn) [Compound 66, 7-[2-[2-[6-[azetidin-3-yl(methyl)amino]-2-methyl-4-oxidanylidene-5,6,7,8-tetrahydroquinazolin-3-yl]ethoxy]-5-chloranyl-phenyl]-5-methyl-thieno[3,2-b]pyridine-3-carboxylic acid; 2,2,2-tris(fluorenyl)acetic acid]",> 5000 nM,–,–,–
